# Results from patent US20210164992A1, “COMPOSITIONS AND METHODS RELATED TO INNATE RESPONSE TO DNA AND REGULATION OF INTERFERON-BETA” (priority 2018, published 2021).
# How the values were obtained:
# [1] = system: HCMV; assay: HCMV reproduction and spread in NHDFs, virus titer (TCID/50); type: cell-based, human cytomegalovirus; conditions: 1 μM JAK inhibitor (Pyridone 6) vs DMSO
# [2] = system: IFNB1 mRNA; assay: IFNB1 mRNA abundance in response to dsDNA in siRNA-treated NHDFs with or without JAK inhibitor (qRT-PCR); type: cell-based, human; conditions: NHDFs transfected with dsDNA, JAK inhibitor (Pyridone 6) vs DMSO (FIG. 5A)
# [3] = system: cellular m^6A effectors; assay: HCMV-induced accumulation of cellular m^6A effector proteins in NHDFs (immunoblotting); type: cell-based, human; conditions: NHDFs infected with HCMV (MOI=3); PP242 25 μM vs DMSO (FIG. 1E)
# [4] = system: IFNB1 mRNA; assay: dsDNA-induced IFNB1 mRNA accumulation in primary human fibroblasts (RT-PCR), Rhein treatment; type: cell-based; conditions: primary human fibroblasts transfected with dsDNA, measured after 9 h; Rhein added 24 h prior to or at time of transfection; vs DMSO vehicle (FIG. 16)
compound,measurement,setting,value
"CC(C)(C)c1nc2c3cc[nH]c(=O)c3c3cc(F)ccc3c2[nH]1 [JAK inhibitor, Pyridone 6]",increase of HCMV reproduction in control siRNA-treated cultures,"[1]; MOI=0.05, 7 d (FIG. 2D)",less than 10 fold
same,HCMV reproduction in METTL14 siRNA-treated cultures,"[1]; MOI=0.05, 7 d, compared to control siRNA levels (FIG. 2D)",to a large extent restored HCMV reproduction
same,kinetics of IFNB1 mRNA accumulation,[2],faster
CC(C)n1nc(-c2cc3cc(O)ccc3[nH]2)c2c(N)ncnc21 [PP242],HCMV-induced increase in cellular m^6A effectors,[3],repressed
O=C(O)c1cc(O)c2c(c1)C(=O)c1cccc(O)c1C2=O [Rhein],IFNB1 mRNA production,[4],dose-dependent inhibition of IFNB1 mRNA production
